Test results from patent publication US20090092642A1, “Skin and/or Hair Products, Containing Compounds With an Isoprenoid Structure” (BEIERSDORF AG, priority 2004, published 2009).

System: primary normal human melanocytes
Assay: Melanogenesis assay (14C-tyrosine incorporation) after 3 days of incubation with test substance
Type: cell-based
Conditions: 3 days incubation
Experimental: (§1) A melanogenesis assay was carried out after 3 days of incubation of primary normal human melanocytes with test substance compared to control. The figures listed in the table give the melanogenesis rates (measured as ^14C-tyrosine incorporation) based on the untreated control (=100%). It results from this that the melanogenesis, i.e., the process of melanine synthesis rises to 217%, 128% or 121%, when the melanocytes are cultivated in the presence of the (2E/Z,6E/Z)-3,7,11-trimethyldodeca-2,6,10-trienal (n=3).
as §1, with “135%” for “217%, 128%”, “113%” for “121%,”, “N-[(1E/Z,2E/Z)-3,7-dimethylocta-2,6-dien-1-ylidene]butane-1-amine (n=2).” for “(2E/Z,6E/Z)-3,7,11-trimethyldodeca-2,6,10-trienal (n=3).”
as §1, with “137%” for “217%, 128%”, “127%” for “121%,”, “(2E/Z)-3,7-dimethylocta-2,6-dienal (n=2-6).” for “(2E/Z,6E/Z)-3,7,11-trimethyldodeca-2,6,10-trienal (n=3).”
as §1, with “131%, 130%” for “217%, 128%”, “117%” for “121%,”, “(1E/Z,2E/Z)-3,7-dimethylocta-2,6-dienal oxime (n=2).” for “(2E/Z,6E/Z)-3,7,11-trimethyldodeca-2,6,10-trienal (n=3).”

SMILES: CC(C)=CCC/C(C)=C/C=N/O [(1E/Z,2E/Z)-3,7-dimethylocta-2,6-dienal oxime]
- melanogenesis rate (measured as 14C-tyrosine incorporation) based on the untreated control (=100%), X transverse (0.01 μg/ml, n=2): 117%
- melanogenesis rate (measured as 14C-tyrosine incorporation) based on the untreated control (=100%), X transverse (0.1 μg/ml, n=2): 130%
- melanogenesis rate (measured as 14C-tyrosine incorporation) based on the untreated control (=100%), X transverse (1 μg/ml, n=2): 131%

SMILES: CCCC/N=C/C=C(\C)CCC=C(C)C [N-[(1E/Z,2E/Z)-3,7-dimethylocta-2,6-dien-1-ylidene]butane-1-amine]
- melanogenesis rate (measured as 14C-tyrosine incorporation) based on the untreated control (=100%), X transverse (0.1 μg/ml, n=2): 113%
- melanogenesis rate (measured as 14C-tyrosine incorporation) based on the untreated control (=100%), X transverse (1 μg/ml, n=2): 135%

SMILES: CC(C)=CCC/C(C)=C/C=O [(2E/Z)-3,7-dimethylocta-2,6-dienal]
- melanogenesis rate (measured as 14C-tyrosine incorporation) based on the untreated control (=100%), X transverse (0.001 μg/ml, n=2-6): 127%
- melanogenesis rate (measured as 14C-tyrosine incorporation) based on the untreated control (=100%), X transverse (0.01 μg/ml, n=2-6): 137%

SMILES: CC(C)=CCC/C(C)=C/CC/C(C)=C/C=O [(2E/Z,6E/Z)-3,7,11-trimethyldodeca-2,6,10-trienal]
- melanogenesis rate (measured as 14C-tyrosine incorporation) based on the untreated control (=100%), X transverse (0.1 μg/ml (first column so headed), n=3): 128%
- melanogenesis rate (measured as 14C-tyrosine incorporation) based on the untreated control (=100%), X transverse (0.1 μg/ml (second column so headed), n=3): 121%
- melanogenesis rate (measured as 14C-tyrosine incorporation) based on the untreated control (=100%), X transverse (1 μg/ml, n=3): 217%
